Laboratory results reported in US20220169598A1, “HALOGENATED PHENYLSULFONAMIDE HYDROXAMIC ACID COMPOUNDS, COMPOSITIONS AND USES THEREOF AS SELECTIVE HDAC6 INHIBITORS” (2681603 ONTARIO INC., priority 2019, published 2022).

Columns and labels:
HDAC5 = HDAC5 (Homo sapiens, UniProt Q9UQL6); test: in vitro activity-based HDAC assay; assay type: biochemical; conditions: human HDAC isoform panel, Table 1
HDAC7 = biological target: T1, HDAC7 (Homo sapiens, UniProt Q8WUI4); test: in vitro activity-based HDAC assay; assay type: biochemical; conditions: human HDAC isoform panel, Table 1
T1 sequence (Q8WUI4 1-952): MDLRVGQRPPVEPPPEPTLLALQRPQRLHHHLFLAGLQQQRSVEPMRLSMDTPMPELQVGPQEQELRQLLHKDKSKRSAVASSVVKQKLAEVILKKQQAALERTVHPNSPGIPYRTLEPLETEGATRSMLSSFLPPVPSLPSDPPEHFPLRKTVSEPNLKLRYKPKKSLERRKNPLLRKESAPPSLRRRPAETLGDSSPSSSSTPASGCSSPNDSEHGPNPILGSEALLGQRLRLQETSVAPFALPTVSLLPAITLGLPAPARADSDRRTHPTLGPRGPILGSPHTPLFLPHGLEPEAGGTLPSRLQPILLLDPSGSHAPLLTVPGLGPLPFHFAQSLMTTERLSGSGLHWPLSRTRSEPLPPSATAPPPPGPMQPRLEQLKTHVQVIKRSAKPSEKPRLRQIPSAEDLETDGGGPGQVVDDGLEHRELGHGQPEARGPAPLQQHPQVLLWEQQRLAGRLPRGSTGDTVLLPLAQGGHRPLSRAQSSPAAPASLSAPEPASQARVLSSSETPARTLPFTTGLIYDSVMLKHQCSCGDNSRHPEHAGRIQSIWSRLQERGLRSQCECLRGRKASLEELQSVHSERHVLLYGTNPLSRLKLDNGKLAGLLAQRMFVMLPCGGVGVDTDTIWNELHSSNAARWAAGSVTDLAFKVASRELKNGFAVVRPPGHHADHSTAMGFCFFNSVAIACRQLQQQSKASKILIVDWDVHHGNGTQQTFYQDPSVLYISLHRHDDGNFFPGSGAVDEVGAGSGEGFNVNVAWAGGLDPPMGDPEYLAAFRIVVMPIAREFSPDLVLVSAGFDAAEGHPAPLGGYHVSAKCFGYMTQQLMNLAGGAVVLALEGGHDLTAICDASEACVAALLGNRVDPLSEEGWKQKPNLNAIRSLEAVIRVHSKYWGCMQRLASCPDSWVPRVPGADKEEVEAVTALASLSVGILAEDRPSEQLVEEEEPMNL

HDAC3 = HDAC3 (Homo sapiens, UniProt O15379); test: in vitro activity-based HDAC assay; assay type: biochemical; conditions: human HDAC isoform panel, Table 1
HDAC3, sequence (O15379 whole entry, canonical isoform): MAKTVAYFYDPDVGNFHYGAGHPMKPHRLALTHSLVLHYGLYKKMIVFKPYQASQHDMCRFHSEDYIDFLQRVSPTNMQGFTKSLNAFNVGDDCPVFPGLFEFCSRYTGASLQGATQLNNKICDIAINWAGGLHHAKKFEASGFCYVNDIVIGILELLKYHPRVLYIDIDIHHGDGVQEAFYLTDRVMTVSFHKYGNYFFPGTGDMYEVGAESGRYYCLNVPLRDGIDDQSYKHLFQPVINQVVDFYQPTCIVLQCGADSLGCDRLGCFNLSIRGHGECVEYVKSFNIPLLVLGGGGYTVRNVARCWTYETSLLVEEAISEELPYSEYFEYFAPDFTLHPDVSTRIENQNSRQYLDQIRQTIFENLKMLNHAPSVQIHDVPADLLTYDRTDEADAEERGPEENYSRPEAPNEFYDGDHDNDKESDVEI
HDAC3, sequence (Q9Y618 395-489 partner limits assumed): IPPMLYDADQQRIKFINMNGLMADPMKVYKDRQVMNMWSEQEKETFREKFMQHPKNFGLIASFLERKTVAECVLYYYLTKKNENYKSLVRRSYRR

[1] = Kinetic solubility by analytical HPLC; assay type: physicochemical; conditions: PBS with 5% (v/v) DMSO, aqueous with cosolvent or surfactant or cyclodextrin, kinetic from dmso stock; PBS + 5% DMSO; initial concentration 300 μM; read-out: Saturation Concentration
Protocol: The initial concentration of each exemplary compound was 300 μM.

[2] = Plasma stability by LC-MS; assay type: in vitro ADME; conditions: mouse plasma
Protocol: The stability of select compounds of the application in plasma was assessed quantitatively through LC-MS and the results are shown in Table 6.

MV-4-11 = test: Apoptosis induction by FACS (FITC-Annexin V / PI); assay type: cell-based; conditions: MV-4-11, increasing concentration of inhibitor
HDAC6 = biological target: T2, HDAC6 (Homo sapiens, UniProt Q9UBN7); test: Enzyme kinetic parameters, time-based experiments; assay type: biochemical
T2 sequence (Q9UBN7 1-1215): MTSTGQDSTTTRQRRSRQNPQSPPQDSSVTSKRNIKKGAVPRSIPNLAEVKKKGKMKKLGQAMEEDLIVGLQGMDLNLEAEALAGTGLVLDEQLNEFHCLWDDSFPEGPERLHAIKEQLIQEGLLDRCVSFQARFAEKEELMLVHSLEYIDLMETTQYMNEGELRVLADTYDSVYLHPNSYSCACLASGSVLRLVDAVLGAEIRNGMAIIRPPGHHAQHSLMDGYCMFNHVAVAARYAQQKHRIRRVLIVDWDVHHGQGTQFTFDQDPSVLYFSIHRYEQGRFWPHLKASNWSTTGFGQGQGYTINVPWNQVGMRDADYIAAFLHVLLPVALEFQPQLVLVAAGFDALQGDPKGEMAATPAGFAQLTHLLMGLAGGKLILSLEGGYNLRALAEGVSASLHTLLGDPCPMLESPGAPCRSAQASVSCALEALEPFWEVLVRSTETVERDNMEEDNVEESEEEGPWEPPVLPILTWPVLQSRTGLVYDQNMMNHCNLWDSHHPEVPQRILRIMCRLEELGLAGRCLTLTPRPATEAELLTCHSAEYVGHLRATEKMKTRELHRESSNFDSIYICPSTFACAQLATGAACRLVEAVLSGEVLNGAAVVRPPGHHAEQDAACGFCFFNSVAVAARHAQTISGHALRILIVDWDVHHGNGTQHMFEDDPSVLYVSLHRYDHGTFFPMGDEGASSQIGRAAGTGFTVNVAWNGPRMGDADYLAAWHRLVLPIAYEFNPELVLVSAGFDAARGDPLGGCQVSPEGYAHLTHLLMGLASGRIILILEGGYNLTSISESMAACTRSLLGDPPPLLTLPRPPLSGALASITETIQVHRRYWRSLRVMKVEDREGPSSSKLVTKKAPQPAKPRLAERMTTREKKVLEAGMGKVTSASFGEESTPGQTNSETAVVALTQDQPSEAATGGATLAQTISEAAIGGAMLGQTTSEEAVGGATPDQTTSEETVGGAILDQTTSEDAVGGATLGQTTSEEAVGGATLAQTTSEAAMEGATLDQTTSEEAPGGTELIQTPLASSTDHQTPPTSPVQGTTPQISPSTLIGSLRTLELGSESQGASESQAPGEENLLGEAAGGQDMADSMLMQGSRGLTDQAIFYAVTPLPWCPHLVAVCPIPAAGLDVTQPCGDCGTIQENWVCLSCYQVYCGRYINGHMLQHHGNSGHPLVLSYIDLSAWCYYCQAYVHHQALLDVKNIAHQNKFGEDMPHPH
Protocol: To determine the kinetic parameters for the formation and maintenance of the HDAC6:1-18 complex, several time-based experiments were performed, which are shown in Table 2.

HDAC1 = HDAC1 (Homo sapiens, UniProt Q13547); test: in vitro activity-based HDAC assay; assay type: biochemical; conditions: human HDAC isoform panel, Table 1
HDAC1, sequence (Q13547 whole entry, canonical isoform): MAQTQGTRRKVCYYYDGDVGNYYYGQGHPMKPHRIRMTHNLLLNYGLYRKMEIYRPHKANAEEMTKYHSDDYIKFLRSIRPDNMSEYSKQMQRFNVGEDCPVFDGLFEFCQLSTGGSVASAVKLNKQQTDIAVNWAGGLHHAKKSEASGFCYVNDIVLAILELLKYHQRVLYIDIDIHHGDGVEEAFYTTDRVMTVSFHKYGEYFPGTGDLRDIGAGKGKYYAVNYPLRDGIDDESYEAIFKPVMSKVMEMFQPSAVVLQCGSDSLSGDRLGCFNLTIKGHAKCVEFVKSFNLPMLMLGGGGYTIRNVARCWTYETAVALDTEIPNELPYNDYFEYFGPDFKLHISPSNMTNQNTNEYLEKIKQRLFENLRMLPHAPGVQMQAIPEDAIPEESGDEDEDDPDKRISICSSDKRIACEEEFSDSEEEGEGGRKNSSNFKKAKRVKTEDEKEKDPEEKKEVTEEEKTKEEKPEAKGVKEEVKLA

HDAC5, sequence (Q9UQL6 whole entry, canonical isoform): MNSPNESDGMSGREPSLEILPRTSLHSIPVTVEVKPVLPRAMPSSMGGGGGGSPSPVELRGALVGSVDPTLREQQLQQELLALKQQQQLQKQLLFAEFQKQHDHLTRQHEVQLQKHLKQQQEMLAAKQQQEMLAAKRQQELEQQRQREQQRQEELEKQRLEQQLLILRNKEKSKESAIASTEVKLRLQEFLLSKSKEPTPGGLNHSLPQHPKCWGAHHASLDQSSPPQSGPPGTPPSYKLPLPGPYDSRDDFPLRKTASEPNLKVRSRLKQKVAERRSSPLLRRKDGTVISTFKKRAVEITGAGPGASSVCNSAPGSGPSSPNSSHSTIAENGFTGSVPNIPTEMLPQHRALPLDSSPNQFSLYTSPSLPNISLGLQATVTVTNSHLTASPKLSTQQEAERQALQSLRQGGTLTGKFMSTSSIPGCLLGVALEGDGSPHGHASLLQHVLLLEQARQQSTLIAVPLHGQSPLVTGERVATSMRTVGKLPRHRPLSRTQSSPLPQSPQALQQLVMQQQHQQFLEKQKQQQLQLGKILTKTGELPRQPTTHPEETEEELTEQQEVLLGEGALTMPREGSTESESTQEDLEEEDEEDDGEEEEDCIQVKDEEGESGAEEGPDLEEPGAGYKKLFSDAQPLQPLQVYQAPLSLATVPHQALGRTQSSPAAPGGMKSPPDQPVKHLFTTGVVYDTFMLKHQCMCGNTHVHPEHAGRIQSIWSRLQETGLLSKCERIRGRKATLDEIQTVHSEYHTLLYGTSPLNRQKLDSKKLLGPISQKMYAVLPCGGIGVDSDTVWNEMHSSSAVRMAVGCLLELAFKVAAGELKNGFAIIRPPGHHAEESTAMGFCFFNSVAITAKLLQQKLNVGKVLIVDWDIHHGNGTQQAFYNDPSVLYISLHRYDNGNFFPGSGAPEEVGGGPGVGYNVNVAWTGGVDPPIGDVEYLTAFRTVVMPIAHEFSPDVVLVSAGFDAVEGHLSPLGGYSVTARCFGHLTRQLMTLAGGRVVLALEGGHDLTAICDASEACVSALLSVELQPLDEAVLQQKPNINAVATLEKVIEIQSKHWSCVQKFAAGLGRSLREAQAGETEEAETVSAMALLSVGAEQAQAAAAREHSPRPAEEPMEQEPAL

IC50 (HDAC1) | SMILES | IC50 (HDAC5) | IC50 (HDAC7) | IC50 (HDAC3) | solubility kinetic [1] | half-life [2] | Remaining Percentage (%) 0 min ([2]; 0 min) | Remaining Percentage (%) 15 min ([2]; 15 min) | Remaining Percentage (%) 30 min ([2]; 30 min) | Remaining Percentage (%) 45 min ([2]; 45 min) | Remaining Percentage (%) 60 min ([2]; 60 min) | Remaining Percentage (%) 120 min ([2]; 120 min) | apoptotic-inducting potential (FACS) (MV-4-11) | Ki (HDAC6; HDAC6) | IC50 (HDAC6; HDAC6, no preincubation)
 | O=C(NO)c1ccc(CN(Cc2cccnc2)S(=O)(=O)c2cc(F)c(F)c(F)c2F)cc1 [Compound I-18, N-hydroxy-4-((2,3,4,5-tetrafluoro-N-(pyridin-3-ylmethyl)phenylsulfonamido)methyl)benzamide] | > 1 µM | > 1 µM | 0.373 µM | 142 ± 2.4 µM | 1.82 h | 100% | 96.3% | 63.0% | 54.3% | 51.3% | 50.1% | larger populations of cells undergoing early apoptosis | 0.0014 µM | 0.004 µM
> 1 µM | O=C(NO)c1ccc(CN(C2CC2)S(=O)(=O)c2cc(F)c(F)c(F)c2F)cc1 [Compound I-13, 4-((N-cyclopropyl-2,3,4,5-tetrafluorophenylsulfonamido)methyl)-N-hydroxybenzamide] | > 1 µM | > 1 µM |  | 88.1 ± 1.6 µM |  |  |  |  |  |  |  | larger populations of cells undergoing early apoptosis |  | 
